One may read the EC50 as the concentration that produces a half-maximal response. In general, IC50 refers to the concentration at which inhibition is half-maximal.

Drawing on patent US8957093B2, “N-biphenylmethylindole modulators of PPARG” (The Scripps Research Institute, priority 2011, dated 2015), this text covers EC50, activation and IC50 for 21 molecules.

Test [1] deals with Gal-4-PPAR (human PPAR LBD fused to GAL4 DNA-binding domain) (Homo sapiens (Human), UniProt P37231). Nature of the test: GAL4-PPARG LBD / UAS-luciferase transactivation assay in HEK 293T cells. The class given is cell-based.
Test [2] addresses GST-PPARG-LBD (Homo sapiens (Human), UniProt P37231). Nature of the test: Lanthascreen PPARG competitive binding assay (Invitrogen, TR-FRET). Particulars: Lanthascreen competitive binding; NA = not active; inc = incomplete curve; read-out: IC50 (nM) Lantha. In outline:
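Values are fold change in 520 nm/490 nm FRET ratio relative to a 2% DMSO no-ligand control, excitation 340 nm. Compound dilutions starting at 10 μM competed against 5 nM Fluormone Pan-PPAR Green for GST-PPARG-LBD bound by 5 nM Tb anti-GST antibody. Incubation 2 h in the dark in assay buffer C, triplicate wells.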
(In general: TR-FRET usually uses a lanthanide donor and a delayed reading to cut background.)

The mark [3] stands for this setting: GAL4 transactivation, HEK 293T cells; NA = not active; read-out: EC50 (nM) GAL4.
Where [4] appears, read: HEK-293T, 18 h; read-out: % transactivation at 10 μM (GAL4).
Setting [5] is: HEK-293T, 18 h, read-out: % transactivation at 10 μM (GAL4).

Like-named read-outs stand apart in the source and are kept apart here. Bounds are passed on as bounds.

Gal-4-PPAR (human PPAR LBD fused to GAL4 DNA-binding domain), sequence (P37231 238-503): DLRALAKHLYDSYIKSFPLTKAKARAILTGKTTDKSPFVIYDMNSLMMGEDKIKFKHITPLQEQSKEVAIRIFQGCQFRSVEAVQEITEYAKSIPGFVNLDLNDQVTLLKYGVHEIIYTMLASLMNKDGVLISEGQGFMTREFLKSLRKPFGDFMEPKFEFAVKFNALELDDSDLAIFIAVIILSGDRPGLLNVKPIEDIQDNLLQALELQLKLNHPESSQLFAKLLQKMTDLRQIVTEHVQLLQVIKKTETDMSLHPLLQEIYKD
GST-PPARG-LBD, sequence (P37231 238-503): as above

For the molecule `Cc1c(C)n(Cc2ccc(-c3ccccc3C(=O)O)cc2)c2ccc(C(=O)N[C@@H](C)C3COc4ccccc4O3)cc12` (stereo partly drawn) [Example 214, 4′-((5-(((1S)-1-(2,3-dihydrobenzo[b][1,4]dioxin-2-yl)ethyl)carbamoyl)-2,3-dimethyl-1H-indol-1-yl)methyl)-[1,1′-biphenyl]-2-carboxylic acid], in test [1] (setting [3]), the EC50 amounted to 2350 nM. The activation at 10 µM in test [1] (setting [4]) was determined as 20%. Moreover, in test [2], the IC50 amounted to 25 nM.
Taken in the same sequence, the figures for `Cc1c(C)n(Cc2ccc(-c3ccccc3C(=O)O)cc2)c2ccc(C(=O)N[C@@H](C)c3c(F)cncc3F)cc12` [Example 216, (S)-4′-((5-((1-(3,5-difluoropyridin-4-yl)ethyl)carbamoyl)-2,3-dimethyl-1H-indol-1-yl)methyl)-[1,1′-biphenyl]-2-carboxylic acid] were 884 nM, 30% and 33 nM.
Taken in the same sequence, the figures for `Cc1c(C)n(Cc2ccc(-c3ccccc3C(=O)O)cc2)c2ccc(C(=O)N[C@@H](C)c3ccc(C(F)(F)F)nc3)cc12` [Example 217, (S)-4′-((2,3-dimethyl-5-((1-(6-(trifluoromethyl)pyridin-3-yl)ethyl)carbamoyl)-1H-indol-1-yl)methyl)-[1,1′-biphenyl]-2-carboxylic acid] were 2800 nM, 15% and 230 nM.
Turning to `Cc1c(C)n(Cc2ccc(-c3ccccc3C(=O)O)cc2)c2ccc(C(=O)N[C@@H](C)c3ccc4c(c3)CCO4)cc12` [Example 218, (S)-4′-((5-((1-(2,3-dihydrobenzofuran-5-yl)ethyl)carbamoyl)-2,3-dimethyl-1H-indol-1-yl)methyl)-[1,1′-biphenyl]-2-carboxylic acid], the EC50 in test [1] (setting [3]) amounted to 2550 nM. For the same molecule, in test [1] (setting [4]), the activation at 10 µM is 45%. In addition, in test [2], the 50% inhibitory concentration (IC50) was 223 nM.
As for `Cc1c(C)n(Cc2ccc(-c3ccccc3C(=O)O)cc2)c2ccc(C(=O)N[C@@H](C)c3cc(Cl)cc(Cl)c3)cc12` [Example 219, (S)-4′-((5-((1-(3,5-dichlorophenyl)ethyl)carbamoyl)-2,3-dimethyl-1H-indol-1-yl)methyl)-[1,1′-biphenyl]-2-carboxylic acid], the half-maximal effective concentration (EC50) in test [1] (setting [3]) was 155 nM. In test [1] (setting [4]), the activation at 10 µM came out at 30%. In addition, the IC50 in test [2] was found to be 15 nM.
On to `Cc1c(C)n(Cc2ccc(-c3ccccc3C(=O)O)cc2)c2ccc(C(=O)N[C@@H](C)c3ccc(Cl)c(Cl)c3)cc12` [Example 220, (S)-4′-((5-((1-(3,4-dichlorophenyl)ethyl)carbamoyl)-2,3-dimethyl-1H-indol-1-yl)methyl)-[1,1′-biphenyl]-2-carboxylic acid], for which, in test [1] (setting [3]), the half-maximal effective concentration (EC50) amounted to 142 nM. In addition, in test [1] (setting [4]), the activation at 10 µM was 30%. In addition, the IC50 in test [2] is 10 nM.
As to `Cc1c(C)n(Cc2ccc(-c3ccccc3C(=O)O)cc2)c2ccc(C(=O)N[C@@H](C)c3cc(C(F)(F)F)ccc3F)cc12` [Example 221, (S)-4′-((5-((1-(2-fluoro-5-(trifluoromethyl)phenyl)ethyl)carbamoyl)-2,3-dimethyl-1H-indol-1-yl)methyl)-[1,1′-biphenyl]-2-carboxylic acid], the 50% effective concentration (EC50) in test [1] (setting [3]) came to 156 nM. For the same molecule, the activation at 10 µM in test [1] (setting [4]) is 20%. In test [2], the 50% inhibitory concentration (IC50) came to 11 nM.
In the case of `COc1cc(C(F)(F)F)ccc1[C@H](C)NC(=O)c1ccc2c(c1)c(C)c(C)n2Cc1ccc(-c2ccccc2C(=O)O)cc1` [Example 223, (S)-4′-((5-((1-(2-methoxy-4-(trifluoromethyl)phenyl)ethyl)carbamoyl)-2,3-dimethyl-1H-indol-1-yl)methyl)-[1,1′-biphenyl]-2-carboxylic acid], the EC50 in test [1] (setting [3]) worked out at 676 nM. Further, the activation at 10 µM in test [1] (setting [4]) came out at 10%. In test [2], the concentration for half-maximal inhibition (IC50) worked out at 73 nM.
Take `COc1cc(C(F)(F)F)ccc1[C@@H](C)NC(=O)c1ccc2c(c1)c(C)c(C)n2Cc1ccc(-c2ccccc2C(=O)O)cc1` [Example 224, (R)-4′-((5-((1-(2-methoxy-4-(trifluoromethyl)phenyl)ethyl)carbamoyl)-2,3-dimethyl-1H-indol-1-yl)methyl)-[1,1′-biphenyl]-2-carboxylic acid]: in test [1] (setting [3]), the EC50 is 86 nM. Besides, the activation at 10 µM in test [1] (setting [4]) turned out to be 20%. The IC50 in test [2] is 2 nM.
In the case of `CCc1ccc([C@H](C)NC(=O)c2ccc3c(c2)c(C)c(C)n3Cc2ccc(-c3ccccc3C(=O)O)cc2)cc1` [Example 225, (S)-4′-((5-((1-(4-ethylphenyl)ethyl)carbamoyl)-2,3-dimethyl-1H-indol-1-yl)methyl)-[1,1′-biphenyl]-2-carboxylic acid], the EC50 in test [1] (setting [3]) amounted to 1130 nM. The activation at 10 µM in test [1] (setting [4]) stood at 20%. In test [2], the IC50 stood at 43 nM.
Taken in the same sequence, the figures for `Cc1cc(Cl)ccc1[C@H](C)NC(=O)c1ccc2c(c1)c(C)c(C)n2Cc1ccc(-c2ccccc2C(=O)O)cc1` [Example 226, (S)-4′-((5-((1-(4-chloro-2-methylphenyl)ethyl)carbamoyl)-2,3-dimethyl-1H-indol-1-yl)methyl)-[1,1′-biphenyl]-2-carboxylic acid] were 172 nM, 20% and 11 nM.
Take `Cc1c(C)n(Cc2ccc(-c3ccccc3C(=O)O)cc2)c2ccc(C(=O)N[C@@H](C)c3ccc(F)cc3C(F)(F)F)cc12` [Example 227, (S)-4′-((5-((1-(4-fluoro-2-(trifluoromethyl)phenyl)ethyl)carbamoyl)-2,3-dimethyl-1H-indol-1-yl)methyl)-[1,1′-biphenyl]-2-carboxylic acid]: the concentration for a half-maximal effect (EC50) in test [1] (setting [3]) is 173 nM. Moreover, in test [1] (setting [5]), the activation at 10 µM was found to be 20%. Also, the IC50 in test [2] came to 36 nM.
On to `Cc1c(C)n(Cc2ccc(-c3ccccc3C(=O)O)cc2)c2ccc(C(=O)N[C@@H](C)c3ccc(C(F)(F)F)c(F)c3)cc12` [Example 228, (S)-4′-((5-((1-(3-fluoro-4-(trifluoromethyl)phenyl)ethyl)carbamoyl)-2,3-dimethyl-1H-indol-1-yl)methyl)-[1,1′-biphenyl]-2-carboxylic acid], for which the EC50 in test [1] (setting [3]) came out at 1060 nM. The activation at 10 µM in test [1] (setting [4]) was found to be 15%. In test [2], the 50% inhibitory concentration (IC50) was found to be 53 nM.
For the molecule `Cc1c(C)n(Cc2ccc(-c3ccccc3C(=O)O)cc2)c2ccc(C(=O)N[C@@H](C)c3cccc(F)c3F)cc12` [Example 229, (S)-4′-((5-((1-(2,3-difluorophenyl)ethyl)carbamoyl)-2,3-dimethyl-1H-indol-1-yl)methyl)-[1,1′-biphenyl]-2-carboxylic acid], in test [1] (setting [3]), the EC50 was 354 nM. Also, in test [1] (setting [4]), the activation at 10 µM is 30%. Also, the half-inhibitory concentration (IC50) in test [2] came to 9 nM.
`Cc1c(C)n(Cc2ccc(-c3ccccc3C(=O)O)cc2)c2ccc(C(=O)N[C@@H](C)c3cccc(C(F)(F)F)c3Cl)cc12` [Example 230, (S)-4′-((5-((1-(2-Chloro-3-(trifluoromethyl)phenyl)ethyl)carbamoyl)-2,3-dimethyl-1H-indol-1-yl)methyl)-[1,1′-biphenyl]-2-carboxylic acid]: the EC50 in test [1] (setting [3]) stood at 709 nM. Besides, in test [1] (setting [5]), the activation at 10 µM came out at 20%. The IC50 in test [2] was 103 nM.
Taken in the same sequence, the figures for `Cc1c(C)n(Cc2ccc(-c3ccccc3C(=O)O)cc2)c2ccc(C(=O)N[C@H](C)c3cccc(C(F)(F)F)c3Cl)cc12` [Example 231, (R)-4′-((5-((1-(2-chloro-3-(trifluoromethyl)phenyl)ethyl)carbamoyl)-2,3-dimethyl-1H-indol-1-yl)methyl)-[1,1′-biphenyl]-2-carboxylic acid] were 131 nM, 10% and 2 nM.
Turning to `Cc1c(C)n(Cc2ccc(-c3ccccc3C(=O)O)cc2)c2ccc(C(=O)N[C@@H](C)c3cccc(Cl)c3F)cc12` [Example 232, (S)-4′-((5-((1-(3-chloro-2-fluorophenyl)ethyl)carbamoyl)-2,3-dimethyl-1H-indol-1-yl)methyl)-[1,1′-biphenyl]-2-carboxylic acid], the half-maximal effective concentration (EC50) in test [1] (setting [3]) stood at 297 nM. Besides, in test [1] (setting [4]), the activation at 10 µM was 30%. For the same molecule, in test [2], the IC50 was 18 nM.
On to `Cc1c(C)n(Cc2ccc(-c3ccccc3C(=O)O)cc2)c2ccc(C(=O)N[C@@H](C)c3ccc(F)c(F)c3)cc12` [Example 233, (S)-4′-((5-((1-(3,4-difluorophenyl)ethyl)carbamoyl)-2,3-dimethyl-1H-indol-1-yl)methyl)-[1,1′-biphenyl]-2-carboxylic acid], for which the concentration for a half-maximal effect (EC50) in test [1] (setting [3]) was determined as 166 nM. In test [1] (setting [4]), the activation at 10 µM was determined as 40%. Further, the IC50 in test [2] stood at 9 nM.
Take `Cc1c(C)n(Cc2ccc(-c3ccccc3C(=O)O)cc2)c2ccc(C(=O)N[C@H](C)c3ccc(C(F)(F)F)c(F)c3)cc12` [Example 234, (R)-4′-((5-((1-(3-fluoro-4-(trifluoromethyl)phenyl)ethyl)carbamoyl)-2,3-dimethyl-1H-indol-1-yl)methyl)-[1,1′-biphenyl]-2-carboxylic acid]: the EC50 in test [1] (setting [3]) came out at 40 nM. For the same molecule, in test [1] (setting [4]), the activation at 10 µM worked out at 50%. Further, the IC50 in test [2] was under 1 nM.
As for `Cc1c(C)n(Cc2ccc(-c3ccccc3C(=O)O)cc2)c2ccc(C(=O)N[C@H](C)c3c(F)ccc(F)c3F)cc12` [Example 235, (R)-4′-((2,3-dimethyl-5-((1-(2,3,6-trifluorophenyl)ethyl)carbamoyl)-1H-indol-1-yl)methyl)-[1,1′-biphenyl]-2-carboxylic acid], the EC50 in test [1] (setting [3]) was determined as 37 nM. Moreover, in test [1] (setting [5]), the activation at 10 µM came to 30%. Moreover, the 50% inhibitory concentration (IC50) in test [2] was 3 nM.
Taken in the same sequence, the figures for `Cc1c(C)n(Cc2ccc(-c3ccccc3C(=O)O)cc2)c2ccc(C(=O)N[C@@H](C)c3c(F)ccc(F)c3F)cc12` [Example 236, (S)-4′-((2,3-dimethyl-5-((1-(2,3,6-trifluorophenyl)ethyl)carbamoyl)-1H-indol-1-yl)methyl)-[1,1′-biphenyl]-2-carboxylic acid] were 293 nM, 20% and 17 nM.
